We go through twelve compounds from ChEMBL document CHEMBL3397006, “Synthesis and evaluation of the diarylthiourea analogs as novel anti-cancer agents” (Bioorg Med Chem Lett, 2015).

One may read the GI50 as the concentration giving 50% growth inhibition. The term NOAEL denotes the highest dose or exposure tested at which no adverse effect was seen. The bioavailability is the share of a dose that reaches the circulation, judged against a reference dose that is usually intravenous. Low readings indicate little systemic uptake, high ones much systemic uptake.

Activity calls are given as the source filed them. The calls are words filed in the database; no cut-off is given here.

In series [1] the test system is LNCaP. Kind of series: Selectivity index, ratio of GI50 for human DU145 cells to GI50 for human LNCAP cells. The format is functional.
The test system of series [2] is LNCaP. Kind of series: Cytotoxicity against human LNCAP cells assessed as reduction in cell viability after 48 hrs by MTT assay. The class given is functional. Background: Tetrazolium dyes change colour on reduction, which living cells bring about.
Series [3] concerns T47D. Kind of series: Cytotoxicity against human T47D cells assessed as reduction in cell viability after 48 hrs by MTT assay. The format is functional.
Series [4] deals with MDA-MB-453. Description: Cytotoxicity against human MDA-MB-453 cells assessed as reduction in cell viability after 48 hrs by MTT assay. The format is functional. The settings on record: MDA-MB-453, 48 h.
Series [5] is described as follows: Cytotoxicity against human PC3 cells assessed as reduction in cell viability after 48 hrs by MTT assay. The format is functional. Conditions: PC-3, 48 h.
Series [6] has as its system DU-145. Description: Cytotoxicity against human DU145 cells assessed as reduction in cell viability after 48 hrs by MTT assay. Conditions: DU-145, 48 h. The format is functional.
For series [7], the system named is MCF7. Description: Cytotoxicity against human MCF7 cells assessed as reduction in cell viability after 48 hrs by MTT assay. The format is functional. The settings on record: MCF7, 48 h.
Series [8] relates to LNCaP. Kind of series: Selectivity index, ratio of GI50 for human PC3 cells to GI50 for human LNCAP cells. The class given is functional.
In series [9] the test system is T47D. Description: Growth inhibition of human T47D cells at 0.5 to 20 uM after 4 days by MTT assay. The class given is functional, cell-based.
In series [10] the test system is MDA-MB-453. Description: Growth inhibition of human MDA-MB-453 cells at 0.5 to 20 uM after 4 days by MTT assay. The class given is functional, cell-based.
The test system of series [11] is LNCaP. Kind of series: Growth inhibition of human LNCAP cells at 0.5 to 20 uM after 4 days by […] assay.
For series [12], the system named is MCF7. Description: Growth inhibition of human MCF7 cells at 0.5 to 20 uM after 4 days by MTT assay. The class given is functional, cell-based.
Series [13] concerns T47D. Kind of series: Growth inhibition of human T47D cells. The class given is functional.
Series [14] in a line: Growth inhibition of human PC3 cells. Conditions: PC-3. The format is functional.
Series [15] deals with MCF7. Kind of series: Growth inhibition of human MCF7 cells. The format is functional.
Series [16] has as its system MDA-MB-453. Description: Growth inhibition of human MDA-MB-453 cells. The format is functional.
Another series is described as follows: Toxicity in dog. The settings on record: in vivo.
Series [17] is described as follows: Protein binding in plasma (unknown origin). The class given is ADME, cell-free. The settings on record: read-out: PPB (converted).
The nature of series [18]: Systemic bioavailability in rat. The format is ADME, organism-based. Conditions: in vivo.
Series [19] deals with DU-145. Description: Growth inhibition of human DU145 cells. The format is functional.

Regarding `CC(NC(=S)Nc1ccc([N+](=O)[O-])cc1)c1cccc2ccccc12` (stereo not drawn), the “Selectivity Index” value with LNCaP [1] and in the series on LNCaP [8] was 2 each time. In addition, the GI50 in the series with LNCaP [2] amounted to 6.05 µM; in the series on T47D [3], 2.94 µM; in the series with MDA-MB-453 [4] it was 6.27 µM; in series [5] it was 13.9 µM; in the series on DU-145 [6] it was 13.7 µM; in the series on MCF7 [7], 6.21 µM.

Take `O=[N+]([O-])c1ccc(NC(=S)Nc2cc3c4ccccc4ccc3c3ccccc23)cc1`: the “growth inhibition (GI)” value in the series on T47D [9], with MDA-MB-453 [10], in the series on LNCaP [11] and in the series with MCF7 [12] was “Active” each time. In addition, the “Selectivity Index” value with LNCaP [1] and with LNCaP [8] was 6 in each case. The GI50 was determined as 3.54 µM with LNCaP [2]; 2.53 µM in the series with T47D [3]; 4.77 µM in the series with MDA-MB-453 [4]; 20 µM in [5]; 21.8 µM in the series with DU-145 [6]; 3.16 µM in the series on MCF7 [7].

As for `Cc1cc2cc(NC(=S)Nc3ccc([N+](=O)[O-])cc3)ccc2[nH]1`, the GI50 in the series with LNCaP [2] is 40.5 µM; with T47D [3] it was 21.6 µM; with MDA-MB-453 [4], over 50 µM; in series [5], over 50 µM; in the series on DU-145 [6], over 50 µM; with MCF7 [7], over 50 µM.

With `Cc1ccc(NC(=S)Nc2ccc([N+](=O)[O-])cc2)cc1C`, the GI50 stood at 10.6 µM in the series with LNCaP [2]; 8.14 µM in the series with T47D [3]; 13.5 µM in the series on MDA-MB-453 [4]; 26.8 µM in series [5]; 35.1 µM in the series on DU-145 [6]; 17 µM with MCF7 [7].

With `CC1(C)CC(C)(C)c2cc(NC(=S)Nc3ccc([N+](=O)[O-])cc3)ccc2S1` [SHETA-2], the GI50 was found to be 4.8 µM in the series on T47D [13]; 2.25 µM with LNCaP [2]; 5 µM in [14]; 3.99 µM in the series on T47D [3]; 4.5 µM in the series on MCF7 [15]; 3.27 µM in the series with MDA-MB-453 [4]. For the same compound, the GI50 in the series on MDA-MB-453 [16] worked out at 5 µM; in [5] it was 4.8 µM; with DU-145 [6] it was 3.47 µM; with MCF7 [7], 4.13 µM; with DU-145 [19] it was 4.9 µM. This compound returned an NOAEL in “Toxicity in dog” of over 1500 mg/kg. In addition, in series [17], the fraction unbound is 0.007. Also, the bioavailability in series [18] is under 1%.

`CC1=C(/C=C/C(C)=C/C=C/C(C)=C/C(=O)O)C(C)(C)CCC1` [TRETINOIN]: the concentration for 50% growth inhibition (GI50) in the series with LNCaP [2] came to 10.3 µM; in the series with T47D [3], 0.82 µM; with MDA-MB-453 [4], 9.51 µM; in [5], 12.6 µM; in the series on DU-145 [6] it was 11.6 µM; in the series with MCF7 [7], 12.4 µM.

Consider `Cc1cc(=O)oc2cc(NC(=S)Nc3ccc([N+](=O)[O-])cc3)ccc12`, for which the GI50 is over 50 µM with LNCaP [2]; over 50 µM in the series on T47D [3]; over 50 µM in the series with MDA-MB-453 [4]; over 50 µM in series [5]; over 50 µM in the series with DU-145 [6]; 9.89 µM with MCF7 [7].

With `CCn1c2ccccc2c2cc(NC(=S)Nc3ccc([N+](=O)[O-])cc3)ccc21`, the GI50 with LNCaP [2] stood at 5.86 µM; with T47D [3] it was 9.44 µM; with MDA-MB-453 [4] it was 6.88 µM; in series [5] it was 19.6 µM; in the series with DU-145 [6], 5.87 µM; in the series with MCF7 [7] it was 12.8 µM.

Regarding `O=c1oc2ccc(NC(=S)Nc3ccc([N+](=O)[O-])cc3)cc2c2ccccc12`, the GI50 with LNCaP [2] turned out to be 12.8 µM; in the series on T47D [3], 8.68 µM; in the series on MDA-MB-453 [4], 27.6 µM; in series [5], 22.6 µM; in the series on DU-145 [6] it was 24.1 µM; in the series on MCF7 [7], 13.1 µM.

On to `O=[N+]([O-])c1ccc(NC(=S)Nc2ccc3c(c2)Cc2cc(Br)ccc2-3)cc1`, for which the GI50 was 11.3 µM with LNCaP [2]; 3.96 µM in the series with T47D [3]; 6.2 µM in the series on MDA-MB-453 [4]; 16.5 µM in series [5]; 17.5 µM in the series on DU-145 [6]; 7.81 µM with MCF7 [7].

With `O=[N+]([O-])c1ccc(NC(=S)Nc2cc3ccccc3c3ccccc23)cc1`, the GI50 worked out at 7.29 µM in the series with LNCaP [2]; 11.6 µM in the series with T47D [3]; 14.5 µM with MDA-MB-453 [4]; 19.3 µM in series [5]; 6.11 µM in the series on DU-145 [6]; 13.3 µM in the series on MCF7 [7].

Turning to `O=[N+]([O-])c1ccc(NC(=S)Nc2ccc3sccc3c2)cc1`, the GI50 in the series with LNCaP [2] was 23.5 µM; with T47D [3], 15.3 µM; in the series with MDA-MB-453 [4], over 50 µM; in series [5], over 50 µM; in the series with DU-145 [6], over 50 µM; in the series with MCF7 [7], over 50 µM.
